Data published in patent publication US20090012446A1, “DEVICES, SYSTEMS AND METHODS FOR RELEASE OF CHEMICAL AGENTS” (priority 2007, published 2009).

Legend:
[1] = test system: cultured hippocampal network; assay: Evoked reverberatory activity of a cultured hippocampal network, patch clamping (polysynaptic current); format: cell-based, rat
Description: In several studies, the NMDA-type glutamate receptor antagonist AP-5 was, for example, incorporated as a dopant into PPy-coated gold “macro-electrodes” (having an area of 0.77-cm^2). In general, macro-electrodes or macroelectrodes have dimensions greater than 1 mm. A hippocampal neuronal culture and patch clamping were used to test the effectiveness of AP5 release. The drug was released from the electrode into normal recording solution by applying 30 cyclic voltage stimuli. This solution, when added to the neuronal culture, blocked evoked reverberatory activity in the network. […] 280 trials (at 30 s intervals) of evoked activity of a cultured hippocampal network under 5 different conditions were made in several studies as follows: 1. control (ctrl); 2. with 25 μM D-AP5 (AP5); 3. wash with recording solution that soaked the macroelectrode without voltage pulses (wash1); 4. with recording solution containing electrically released AP5 (AP5_r); 5. wash with normal recording solution (wash2). […] FIGS. 3A-3E sets forth example traces of polysynaptic current with one sample trace for each test condition. The scale bar in FIGS. 3A-E is 0.5 nA, 1 s.

[2] = test system: neuronal cultures from E18 rat cortices; assay: Extracellular recording of spontaneous spiking on MED64 microelectrodes coated with polypyrrole/CNQX after current stimulus; format: cell-based
Description: CNQX is an AMPA type glutamate receptor antagonist which inhibits excitatory neural transmission. We electrodeposited polypyrrole/CNQX on the microelectrodes of MED64 probes which were than plated with neuronal cultures from E18 rat cortices. When spontaneous activity was observed on an electrode bearing a CNQX/PPy film, a current stimulus (four 1 s-long pulses of −5 μA with 200 ms refractory periods in between) was applied to the electrode. Recordings were taken before and after the stimulus to observe any inhibition and recovery (during the stimulation it was not possible to record from the particular electrode given the pulse).
It was observed that neural spiking disappeared after applying the stimulus to an electrode bearing the PPy/CNQX. And at a later time point action potentials from the same cell (determined by examination of the waveforms in Offline Sorter and Wave Tracker, Plexon Inc.) reappeared on the electrode and the rate returned to baseline (determined by pre-stimulus control recordings). […] We determined, through repeated release, inhibition and recovery cycles, a time course of inhibition and recovery (see FIG. 5B) that appears consistent with the published effect of CNQX and with the theoretical estimate of CNQX diffusion in solution. In the studies of FIG. 5B, repeated CNQX release trials were performed to determine a time course of recovery. […]

[3] = test system: low-density neuronal network; assay: Patch clamp recording of monosynaptic currents in low-density neuronal network on PPy-modified MED64 after command signal; format: cell-based
Description: FIG. 6A is a photomicrograph image of a low-density neuronal network growing on a conducting polymer modified multielectrode array (MED64 available from Panasonic). The platinum coated electrodes are modified with the conducting polymer poly-pyrrole (PPy) containing either CNQX or chloride and phosphate ions (P) from PBS (blank release control). Release of the drug is affected by a “command signal,” which is the delivery of a voltage pulse (−2.5 V, 200 ms). Neuron “firing,” the generation of action potentials, is an all or none phenomenon. Synaptic currents are a continuous and graded phenomenon. For this reason synaptic currents recorded by patch electrodes better reflect the release and diffusion of the synaptic inhibitor CNQX, compared to action potentials recorded by the extracellular electrodes. To monitor the effect of release, individual cells in the network are patch clamped (wherein the patched cell is indicated by an arrow in FIG. 6A). The experimental protocol is described graphically in FIG. 6B. Neural stimulations (ns1,2, . . . ,8) are delivered through the substrate electrodes (but not the releasing electrode). The command signal starts 300 ms prior to ns2, and the currents are recorded by the patch electrode. […] FIG. 6C sets forth 8 columns corresponding to ns1 . . . 8, and 6 rows corresponding to individual trials. […]

## N[C@H](CCCP(=O)(O)O)C(=O)O [AP5, 2-amino-5-phosphonopentanoic acid]
[1]; added AP5, 25 μM D-AP5 in recording solution
  reverberatory activity (polysynaptic current): completely blocked
[1]; recording solution containing AP5 electrically released from PPy macroelectrode by 30 cyclic voltage stimuli (AP5_r)
  reverberatory activity (polysynaptic current): completely blocked

## N#Cc1cc2nc(O)c(O)nc2cc1[N+](=O)[O-] [CNQX, 6-cyano-7-nitroquinoxaline-2,3-dione]
[2]; four 1 s pulses of −5 μA, transient, with subsequent recovery to baseline
  neuronal spiking on the releasing/recording electrode after release: suppression of neuronal spiking
[2]; inter-electrode distance of 212 μm
  spiking activity on neighboring electrodes after release: did not affect spiking activity on neighboring electrodes
[3]; cell close to a CNQX containing electrode
  monosynaptic current following release (individual trial, FIG. 6C): almost completely abolished
[3]; voltage pulse −2.5 V, 200 ms to electrode with PPy film containing CNQX
  size of monosynaptic currents following command signal: significant decrease
